Measured values taken from the supplement of paper PMC13380429.

Tests used:
Conditions in all cases: 72 h
Caco-2 [1] = test: cell viability relative to DMSO; higher = less toxic
Calu-3 [2] = test: as above
HepG2 [3] = test: as above
U2OS [4] = test: as above
Vero E6 [5] = test: as above
Caco-2 [6] = test: relative viability EC50 (midpoint between 100% and the lowest measured viability); higher = less toxic
Calu-3 [7] = test: as above
HepG2 [8] = test: as above
U2OS [9] = test: as above
Vero E6 [10] = test: as above
Caco-2 [11] = test: drug sensitivity score (DSS) for viability; higher = more toxic; extreme values may be limits of the assay
Calu-3 [12] = test: as above
HepG2 [13] = test: as above
U2OS [14] = test: as above
Vero E6 [15] = test: as above

Row | Structure (SMILES) | cell viability (Caco-2 [1]; 1 nM) | cell viability (Caco-2 [1]; 10 nM) | cell viability (Caco-2 [1]; 100 nM) | cell viability (Caco-2 [1]; 1000 nM) | cell viability (Caco-2 [1]; 10000 nM) | cell viability (Calu-3 [2]; 1 nM) | cell viability (Calu-3 [2]; 10 nM) | cell viability (Calu-3 [2]; 100 nM) | cell viability (Calu-3 [2]; 1000 nM) | cell viability (Calu-3 [2]; 10000 nM) | cell viability (HepG2 [3]; 1 nM) | cell viability (HepG2 [3]; 10 nM) | cell viability (HepG2 [3]; 100 nM) | cell viability (HepG2 [3]; 1000 nM) | cell viability (HepG2 [3]; 10000 nM) | cell viability (U2OS [4]; 1 nM) | cell viability (U2OS [4]; 10 nM) | cell viability (U2OS [4]; 100 nM) | cell viability (U2OS [4]; 1000 nM) | cell viability (U2OS [4]; 10000 nM) | cell viability (Vero E6 [5]; 1 nM) | cell viability (Vero E6 [5]; 10 nM) | cell viability (Vero E6 [5]; 100 nM) | cell viability (Vero E6 [5]; 1000 nM) | cell viability (Vero E6 [5]; 10000 nM) | relative viability EC50 (Caco-2 [6]) | relative viability EC50 (Calu-3 [7]) | relative viability EC50 (HepG2 [8]) | relative viability EC50 (U2OS [9]) | relative viability EC50 (Vero E6 [10]) | drug sensitivity score (Caco-2 [11]) | drug sensitivity score (Calu-3 [12]) | drug sensitivity score (HepG2 [13]) | drug sensitivity score (U2OS [14]) | drug sensitivity score (Vero E6 [15])
1 | O=C(O)COc1nn(Cc2ccccc2)c2ccccc12 [bendazac] | 109% | 96.3% | 103% | 97.6% | 102% | 86.6% | 83.3% | 104% | 103% | 104% | 91.7% | 104% | 97.3% | 94.1% | 98.7% | 91.7% | 95.3% | 98.9% | 92.3% | 96.1% | 101% | 101% | 99% | 103% | 98.8% | > 10 µM | > 10 µM | > 10 µM | > 10 µM | > 10 µM | 0 | 0 | 0 | 0 | 0
2 | CN(C)CCCOc1nn(Cc2ccccc2)c2ccccc12 [benzydamine] | 86.2% | 94.3% | 73.1% | 80.3% | 87.1% | 98.8% | 91.7% | 95.6% | 101% | 90.5% | 97.7% | 102% | 95.1% | 91.4% | 89.8% | 101% | 96.5% | 100% | 95.6% | 91.2% | 98.7% | 105% | 98.3% | 96.9% | 85.5% | > 10 µM | > 10 µM | > 10 µM | > 10 µM | > 10 µM | 0 | 0 | 0 | 0 | 0.5
3 | COc1cc(OC)c(/C=C/S(=O)(=O)Cc2ccc(OC)c(OP(=O)(O)O)c2)c(OC)c1 [briciclib] | 106% | 103% | 45.1% | 42% | 42.9% | 101% | 108% | 94.9% | 65.2% | 41% | 113% | 108% | 56.1% | 36% | 38.7% | 102% | 104% | 73.4% | 23.7% | 18.2% | 95.9% | 92.2% | 23.6% | 21.2% | 26.9% | 0.0392 µM | 0.75 µM | 0.0738 µM | 0.161 µM | 0.0246 µM | 17.5 | 7.4 | 17 | 17.5 | 25.5
4 | CCCCN1CCCCC1C(=O)Nc1c(C)cccc1C (stereo not given) [bupivacaine] | 85.3% | 88.2% | 71.6% | 96.7% | 82.9% | 95.9% | 101% | 80.2% | 99.1% | 88.4% | 100% | 106% | 92.7% | 97.2% | 103% | 95.7% | 96.7% | 94.6% | 103% | 95.7% | 103% | 103% | 104% | 98.7% | 99.6% | > 10 µM | > 10 µM | > 10 µM | > 10 µM | > 10 µM | 0 | 0 | 0 | 0 | 0
5 | CC(NC(C)(C)C)C(=O)c1cccc(Cl)c1 (stereo not given) [bupropion] | 90.3% | 90.6% | 86.4% | 105% | 91.6% | 104% | 96.3% | 101% | 106% | 101% | 100% | 103% | 103% | 105% | 95% | 95.1% | 96% | 99% | 94.4% | 93.8% | 107% | 105% | 102% | 92.1% | 81.7% | > 10 µM | > 10 µM | > 10 µM | > 10 µM | > 10 µM | 0 | 0 | 0 | 0 | 1.3
6 | Cn1nc(C(C)(C)C)cc1C(=O)N[C@@H](Cc1cccc(Cl)c1)C(=O)NCC#N [cathepsin-inhibitor-1] | 99.8% | 99.3% | 86.7% | 93.5% | 92.3% | 103% | 89.1% | 105% | 94.9% | 91.8% | 94% | 103% | 112% | 90.8% | 98.4% | 97.7% | 99.1% | 92.8% | 94.2% | 90.9% | 95% | 99.3% | 102% | 96.2% | 98.4% | > 10 µM | > 10 µM | > 10 µM | > 10 µM | > 10 µM | 0 | 0 | 0 | 0 | 0
7 | CCCCCCCCCCCCCCCC[n+]1ccccc1 [cetylpyridinium] | 103% | 99% | 101% | 66.4% | 16.5% | 104% | 99.9% | 105% | 84.3% | 44.1% | 106% | 95.4% | 89.2% | 58.2% | 14.6% | 103% | 102% | 104% | 80.9% | 10.1% | 96.2% | 97.5% | 98.1% | 91.6% | 19.2% | 1.17 µM | 1.46 µM | 0.929 µM | 1.68 µM | 2.3 µM | 9.1 | 5.4 | 9.8 | 8 | 5.9
8 | NS(=O)(=O)c1cc2c(cc1Cl)N=CNS2(=O)=O [chlorothiazide] | 92.4% | 99.8% | 95.3% | 91% | 86.6% | 85.8% | 88.9% | 103% | 102% | 96.6% | 102% | 102% | 95.9% | 97.8% | 99% | 98.1% | 102% | 96.6% | 106% | 99% | 97.8% | 103% | 96.3% | 96.8% | 96.7% | > 10 µM | > 10 µM | > 10 µM | > 10 µM | > 10 µM | 0.1 | 0 | 0 | 0 | 0
9 | Cc1ccc2c(Cl)cc(Cl)c(O)c2n1 [chlorquinaldol] | 107% | 91.3% | 96.7% | 91.4% | 103% | 92.4% | 99.9% | 84.2% | 86.9% | 108% | 89.3% | 95.5% | 99.1% | 84.4% | 108% | 96.8% | 102% | 97.8% | 102% | 100% | 93.3% | 88.9% | 99.2% | 86.6% | 103% | > 10 µM | > 10 µM | > 10 µM | > 10 µM | > 10 µM | 0 | 0 | 0 | 0 | 0
10 | COc1ccc([C@]2(C#N)CC[C@@H](C(=O)O)CC2)cc1OC1CCCC1 [cilomilast] | 98.3% | 91.3% | 106% | 106% | 100% | 97.8% | 112% | 102% | 88.9% | 95.9% | 89.4% | 93.6% | 98.3% | 97.2% | 104% | 103% | 97.4% | 99.7% | 100% | 100% | 88.2% | 98.7% | 89.8% | 95.9% | 97.9% | > 10 µM | > 10 µM | > 10 µM | > 10 µM | > 10 µM | 0 | 0.3 | 0 | 0 | 0
11 | CCCCOc1cc(C(=O)NCCN(CC)CC)c2ccccc2n1 [cinchocaine] | 99.9% | 95% | 103% | 94.2% | 88.1% | 96.6% | 94.4% | 97.4% | 94.3% | 92.3% | 97.2% | 107% | 102% | 94.7% | 89.2% | 100% | 98.2% | 101% | 98.1% | 101% | 103% | 104% | 97.8% | 103% | 94.1% | > 10 µM | > 10 µM | > 10 µM | > 10 µM | > 10 µM | 0.3 | 0 | 0.1 | 0 | 0
12 | CN(CCOP(=O)(O)O)C(=N)N [creatinol-phosphate] | 102% | 99.5% | 93.6% | 101% | 90.7% | 104% | 94.2% | 105% | 92.8% | 98.5% | 88.7% | 94.6% | 101% | 105% | 92.4% | 92.5% | 95.6% | 94.7% | 93.3% | 93.4% | 103% | 97.8% | 98.4% | 104% | 97.8% | > 10 µM | > 10 µM | > 10 µM | > 10 µM | > 10 µM | 0 | 0 | 0 | 0 | 0
13 | C[C@H]1COC2=C1C(=O)C(=O)c1c2ccc2c1CCCC2(C)C [cryptotanshinone] | 97.2% | 93% | 98.1% | 102% | 85.4% | 111% | 111% | 99.1% | 107% | 108% | 97.3% | 93.3% | 97.2% | 98.9% | 98% | 101% | 103% | 100% | 101% | 94.4% | 95% | 102% | 103% | 98.5% | 100% | > 10 µM | > 10 µM | > 10 µM | > 10 µM | > 10 µM | 0.1 | 0 | 0 | 0 | 0
